15 molecules from US10793526B2, “Hydantoin derivative compounds, methods of use and methods of treatment” (University of South Florida, priority 2016, dated 2020) can be followed below.

One assay relates to E. coli (ATCC 25922). Briefly: Minimum inhibitory concentration (MIC) assay, E. coli. To be noted: 16 h incubation; for MIC: Escherichia coli, ATCC25922, Gram negative, read-out: MIC (μg/mL) E. coli; for MIC (μg/mL) E. coli: Gram negative. Type of assay: cell-based, Escherichia coli. The protocol:
(§1) Minimum inhibitory concentrations (MICs) assay.^2
(§2) All compounds were tested against six different bacteria strains: methicillin-resistant S. aureus (MRSA, ATCC 33591), E. coli (ATCC 25922), methicillin-resistant S. epidermidis (MRSE, RP62A), K. pneumoniae (ATCC 13383), vancomycin-resistant Enterococcus faecalis (VREF, ATCC 700802), P. aeruginosa (ATCC 27853). One colony of each bacteria was inoculated in 4 mL TSB buffer at 37° C. overnight, which was then diluted 100 times, and the bacteria were allowed to grow to the mid-logarithmic phase. 50 μL hydantoin compounds in 2-fold serial dilution of TSB were added in the 96-well plate, then 50 μL diluted bacterial in TSB medium (1×10^6 CFU/mL) was added to each well. After 16 h of incubation at 37° C., the absorption at 600 nm wavelength on a Biotek Synergy HT microtiter plate reader was recorded. Minimum inhibitory concentrations were determined as the lowest concentrations that inhibited bacteria growth completely.

The subject of assay [1] is K. pneumoniae (ATCC 13383). Briefly: Minimum inhibitory concentration (MIC) assay, K. pneumoniae. Type of assay: cell-based, Klebsiella pneumoniae. To be noted: 16 h incubation; for MIC: Klebsiella pneumoniae, ATCC13383, Gram negative, read-out: MIC (μg/mL) K.P.; for MIC (μg/mL) K.P.: Gram negative. The protocol:
as §1, §2

Assay [2] relates to vancomycin-resistant Enterococcus faecalis (VREF, ATCC 700802). Briefly: Minimum inhibitory concentration (MIC) assay, VREF. Particulars: 16 h incubation; for MIC: Enterococcus faecalis, ATCC700802, Gram positive, read-out: MIC (μg/mL) VREF; for MIC (μg/mL) VREF: Gram positive. Type of assay: cell-based. The protocol:
as §1, §2

For assay [3], the system named is P. aeruginosa (ATCC 27853). Briefly: Minimum inhibitory concentration (MIC) assay, P. aeruginosa. It is filed as cell-based, Pseudomonas aeruginosa. Particulars: for MIC: Pseudomonas aeruginosa, ATCC27853, read-out: MIC (μg/mL) P.A.; for MIC / MIC (μg/mL) P.A.: Gram negative, ATCC 27853, 16 h incubation. The protocol: as §1, §2
In assay [4] the test system is methicillin-resistant S. aureus (MRSA, ATCC 33591). Briefly: Minimum inhibitory concentration (MIC) assay, MRSA. Type of assay: cell-based, Staphylococcus aureus. To be noted: Gram positive, ATCC 33591, 16 h incubation; for MIC: Staphylococcus aureus, read-out: MIC (μg/mL) MRSA. The procedure:
as §1, §2

Assay [5] deals with panel of Gram-positive and Gram-negative bacteria. Briefly: Antimicrobial activity against the whole panel of bacteria. It is filed as cell-based. Particulars: for antimicrobial activity across the tested bacterial strains: all tested strains; for antibacterial activity of compounds with HPLC RT values less than 26 min: statement relating activity to retention time. The protocol:
as §1, §2

The test system of assay [6] is methicillin-resistant S. epidermidis (MRSE, RP62A). Briefly: Minimum inhibitory concentration (MIC) assay, MRSE. Type of assay: cell-based, Staphylococcus epidermidis. Particulars: Gram positive, 16 h incubation; for MIC: Staphylococcus epidermidis, MRSE, read-out: MIC (μg/mL) MRSE. The procedure:
as §1, §2

Regarding `CCCCCCCCCC(=O)N[C@@H](CCCCN)CN1CC(=O)N(CC)C1=O` [Compound 1, (S)—N-(6-amino-1-(3-ethyl-2,4-dioxoimidazolidin-1-yl)hexan-2-yl)decanamide], the MIC (with E. coli (ATCC 25922); in assay [1]; in assay [2]; in assay [3]; in assay [4]; in assay [6]) was over 50 µg/mL throughout. For the same molecule, the “antimicrobial activity across the tested bacterial strains” value in assay [5] is given as “doesn't exhibit any activity”. In assay [5], the “antibacterial activity of compounds with HPLC RT values less than 26 min” value (shortened to “antibacterial activity of compounds”) is “no apparent antibacterial activity”.
In the case of `CCCCCCCCCCCC(=O)N[C@@H](CCCCN)CN1CC(=O)N(CC)C1=O` [Compound 2, (S)—N-(6-amino-1-(3-ethyl-2,4-dioxoimidazolidin-1-yl)hexan-2-yl)dodecanamide], the MIC in the assay on E. coli (ATCC 25922) was 12.5 µg/mL; in assay [1], over 50 µg/mL; in assay [2] it was over 50 µg/mL; in assay [3] it was over 50 µg/mL; in assay [4], over 50 µg/mL; in assay [6], over 50 µg/mL. For the same molecule, in assay [5], the “antibacterial activity of compounds” value is on record as “no apparent antibacterial activity”.
Turning to `CCCCCCCCCCCCCCCC(=O)N[C@@H](CCCCN)CN1CC(=O)N(CC)C1=O` [Compound 4, (S)—N-(6-amino-1-(3-ethyl-2,4-dioxoimidazolidin-1-yl)hexan-2-yl)palmitamide], the MIC with E. coli (ATCC 25922) is 3.12 µg/mL; in assay [1], 12.5 µg/mL; in assay [2], 3.12 µg/mL; in assay [3], over 50 µg/mL; in assay [4] it was 3.12 µg/mL; in assay [6] it was 3.12 µg/mL. Also, in assay [3] (under the tested condition), the “activity toward Pseudomonas aeruginosa” value is given as “abolishes its activity”. For the same molecule, the “antibacterial activity of compounds” value in assay [5] is “no apparent antibacterial activity”.
On to `CCCCCCCCCC(=O)N[C@@H](CCCCN)CN1CC(=O)N(CCCC)C1=O` [Compound 5, (S)—N-(6-amino-1-(3-butyl-2,4-dioxoimidazolidin-1-yl)hexan-2-yl)decanamide], for which the MIC (with E. coli (ATCC 25922); in assay [1]; in assay [2]; in assay [3]; in assay [4]; in assay [6]) was over 50 µg/mL each time. Besides, the “antimicrobial activity across the tested bacterial strains” value in assay [5] was “doesn't have any antimicrobial activity”. Moreover, in assay [5], the “antibacterial activity of compounds” value is “no apparent antibacterial activity”.
Turning to `CCCCCCCCCCCCCC(=O)N[C@@H](CCCCN)CN1CC(=O)N(CCCC)C1=O` [Compound 7, (S)—N-(6-amino-1-(3-butyl-2,4-dioxoimidazolidin-1-yl)hexan-2-yl)tetradecanamide], the MIC with E. coli (ATCC 25922) was 6.25 µg/mL; in assay [1], 12.5 µg/mL; in assay [2], 6.25 µg/mL; in assay [3], over 50 µg/mL; in assay [4], 6.25 µg/mL; in assay [6], 6.25 µg/mL.
Regarding `CCCCCCCCCCCCCCCC(=O)N[C@@H](CCCCN)CN1CC(=O)N(CCCC)C1=O` [Compound 8, (S)—N-(6-amino-1-(3-butyl-2,4-dioxoimidazolidin-1-yl)hexan-2-yl)palmitamide], the MIC is over 50 µg/mL in the assay on E. coli (ATCC 25922); over 50 µg/mL in assay [1]; 6.25 µg/mL in assay [2]; over 50 µg/mL in assay [3]; 6.25 µg/mL in assay [4]; 6.25 µg/mL in assay [6].
On to `CCCCCCCCCCCCCC(=O)N[C@@H](CCCCN)CN1CC(=O)N(C2CCCCC2)C1=O` [Compound 11, (S)—N-(6-amino-1-(3-cyclohexyl-2,4-dioxoimidazolidin-1-yl)hexan-2-yl)tetradecanamide], for which the MIC with E. coli (ATCC 25922) was 12.5 µg/mL; in assay [1] it was 6.25 µg/mL; in assay [2], 6.25 µg/mL; in assay [3], over 50 µg/mL; in assay [4], 3.12 µg/mL; in assay [6], 6.25 µg/mL.
Turning to `CCCCCCCCCCCCCCCC(=O)N[C@@H](CCCCN)CN1CC(=O)N(C2CCCCC2)C1=O` [Compound 12, (S)—N-(6-amino-1-(3-cyclohexyl-2,4-dioxoimidazolidin-1-yl)hexan-2-yl)palmitamide], the MIC in the assay with E. coli (ATCC 25922) was over 50 µg/mL; in assay [1] it was over 50 µg/mL; in assay [2] it was 25 µg/mL; in assay [3], over 50 µg/mL; in assay [4], 3.12 µg/mL; in assay [6], 25 µg/mL.
On to `CCCCCCCCCCCC(=O)N[C@@H](CCCCN)CN1CC(=O)N(C23CC4CC(CC(C4)C2)C3)C1=O` [Compound 14, N—((S)-1-(3-((3R,5R,7R)-adamantan-1-yl)-2,4-dioxoimidazolidin-1-yl)-6-aminohexan-2-yl) dodecanamide], for which the “MIC (μg/mL) E. coli” value with E. coli (ATCC 25922) stood at 12.5 µg/mL. Also, the “MIC (μg/mL) K.P.” value in assay [1] was over 50 µg/mL. Further, in assay [2], the “MIC (μg/mL) VREF” value came out at 6.25 µg/mL. Also, in assay [3], the “MIC (μg/mL) P.A.” value is over 50 µg/mL. The “MIC (μg/mL) MRSA” value in assay [4] came out at 6.25 µg/mL. Also, the “MIC (μg/mL) MRSE” value in assay [6] stood at 6.25 µg/mL.
In the case of `CCCCCCCCCCCCCC(=O)N[C@@H](CCCCN)CN1CC(=O)N(C23CC4CC(CC(C4)C2)C3)C1=O` [Compound 15, N—((S)-1-(3-((3R,5R,7R)-adamantan-1-yl)-2,4-dioxoimidazolidin-1-yl)-6-aminohexan-2-yl) tetradecanamide], the “MIC (μg/mL) E. coli” value in the assay on E. coli (ATCC 25922) was over 50 µg/mL. For the same molecule, the “MIC (μg/mL) K.P.” value in assay [1] was over 50 µg/mL. In addition, the “MIC (μg/mL) VREF” value in assay [2] came out at 6.25 µg/mL. Also, in assay [3], the “MIC (μg/mL) P.A.” value is over 50 µg/mL. The “MIC (μg/mL) MRSA” value in assay [4] came to 3.12 µg/mL. In assay [6], the “MIC (μg/mL) MRSE” value stood at 3.15 µg/mL.
Consider `CCCCCCCCCCCCCCCC(=O)N[C@@H](CCCCN)CN1CC(=O)N(C23CC4CC(CC(C4)C2)C3)C1=O` [Compound 16, N—((S)-1-(3-((3R,5R,7R)-adamantan-1-yl)-2,4-dioxoimidazolidin-1-yl)-6-aminohexan-2-yl) palmitamide], for which the “MIC (μg/mL) E. coli” value in the assay on E. coli (ATCC 25922) is over 50 µg/mL. Further, the “MIC (μg/mL) K.P.” value in assay [1] is over 50 µg/mL. Besides, in assay [2], the “MIC (μg/mL) VREF” value was over 50 µg/mL. Besides, the “MIC (μg/mL) P.A.” value in assay [3] is over 50 µg/mL. Also, the “MIC (μg/mL) MRSA” value in assay [4] was over 50 µg/mL. Moreover, in assay [6], the “MIC (μg/mL) MRSE” value was over 50 µg/mL.
In the case of `CCCCCCCCCCCCCC(=O)N[C@@H](CCCCN)CN1CC(=O)N(c2ccc(OC)cc2)C1=O` [Compound 19, (S)—N-(6-amino-1-(3-(4-methoxyphenyl)-2,4-dioxoimidazolidin-1-yl)hexan-2-yl)tetradecanamide], the MIC with E. coli (ATCC 25922) is 6.25 µg/mL; in assay [1], 25 µg/mL; in assay [2], 6.25 µg/mL; in assay [3] it was over 50 µg/mL; in assay [4], 6.25 µg/mL; in assay [6] it was 6.25 µg/mL.
For the molecule `CCCCCCCCCCCCCCCC(=O)N[C@@H](CCCCN)CN1CC(=O)N(c2ccc(OC)cc2)C1=O` [Compound 20, (S)—N-(6-amino-1-(3-(4-methoxyphenyl)-2,4-dioxoimidazolidin-1-yl)hexan-2-yl)palmitamide], the MIC with E. coli (ATCC 25922) is over 50 µg/mL; in assay [1] it was over 50 µg/mL; in assay [2], 6.25 µg/mL; in assay [3], over 50 µg/mL; in assay [4] it was 3.12 µg/mL; in assay [6] it was 6.25 µg/mL.
In the case of `CCCCCCCCCCCCCC(=O)N[C@@H](CCCCN)CN1CC(=O)N(c2cccc(Cl)c2)C1=O` [Compound 23, (S)—N-(6-amino-1-(3-(3-chlorophenyl)-2,4-dioxoimidazolidin-1-yl)hexan-2-yl)tetradecanamide], the MIC in the assay with E. coli (ATCC 25922) was over 50 µg/mL; in assay [1], over 50 µg/mL; in assay [2], 12.5 µg/mL; in assay [3], over 50 µg/mL; in assay [4], 12.5 µg/mL; in assay [6], 12.5 µg/mL.
In the case of `CCCCCCCCCCCCCCCC(=O)N[C@@H](CCCCN)CN1CC(=O)N(c2cccc(Cl)c2)C1=O` [Compound 24, (S)—N-(6-amino-1-(3-(3-chlorophenyl)-2,4-dioxoimidazolidin-1-yl)hexan-2-yl)palmitamide], the MIC with E. coli (ATCC 25922) was over 50 µg/mL; in assay [1] it was over 50 µg/mL; in assay [2] it was 12.5 µg/mL; in assay [3] it was over 50 µg/mL; in assay [4], 12.5 µg/mL; in assay [6] it was 12.5 µg/mL.
